US12209102B2, “Heterocyclic compounds and uses thereof” (Kumquat Biosciences Inc., priority 2022, dated 2025)
pIC50: −log10 of the molar value.

Legend:
[1] = molecular target: T1, K-Ras G12D (Homo sapiens, UniProt P01116, G12D); experiment: HTRF resonance energy transfer assay, K-Ras G12D / SOS1 interaction; assay type: biochemical; conditions: HTRF assay of Example 5; read-out: IC50 against K-Ras G12D
T1 construct: made in house; host or cells: E. coli BL21 (DE3)
Method in brief: (§1)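 Read-out: HTRF 665/620 nm ratio (excitation 337 nm) after roughly 10 min or longer incubation, used to derive IC50. Donor anti-GST-Eu on GST-K-Ras; acceptor anti-6His-XL665 on His-hSOS1. Duplicate dose series from 10 μM down to 0.01 μM.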

[2] = system: A549 cells; experiment: Ras cellular assay, growth of cells with K-Ras G12S mutation (CellTiter-Glo); assay type: cell-based; conditions: Homo sapiens, cell growth, Example 9, G12S mutation, read-out: IC50 against A549 cells
Method in brief: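 A549 cells (K-Ras G12S) in RPMI-1640 with 10% heat-inactivated FBS, seeded e.g. 800 per well in standard or ultra-low-attachment 384-well plates, treated next day with a dilution series (e.g. 10-point, 3-fold). Viability by CellTiter-Glo luminescence about 6 days later; IC50 from four-parameter fit.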

[3] = molecular target: T2, K-Ras G12S (Homo sapiens, UniProt P01116, G12S); experiment: HTRF resonance energy transfer assay, K-Ras G12S / SOS1 interaction; assay type: biochemical; conditions: HTRF assay of Example 5; read-out: IC50 against K-Ras G12S
T2 construct: made in house; host or cells: E. coli BL21 (DE3)
T2 sequence (P01116 1-188 isoform P01116-2 G12S): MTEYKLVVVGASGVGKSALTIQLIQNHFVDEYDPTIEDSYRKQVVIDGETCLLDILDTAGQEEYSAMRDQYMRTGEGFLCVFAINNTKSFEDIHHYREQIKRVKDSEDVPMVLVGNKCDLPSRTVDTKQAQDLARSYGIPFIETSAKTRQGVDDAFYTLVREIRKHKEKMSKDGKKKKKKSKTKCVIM
Method in brief: as §1

[4] = molecular target: T3, K-Ras WT (Homo sapiens, UniProt P01116); experiment: HTRF resonance energy transfer assay, K-Ras WT / SOS1 interaction; assay type: biochemical; conditions: HTRF assay of Example 5; read-out: IC50 against K-Ras WT
T3 construct: made in house; host or cells: E. coli BL21 (DE3)
T3 sequence (P01116 1-188 isoform P01116-2): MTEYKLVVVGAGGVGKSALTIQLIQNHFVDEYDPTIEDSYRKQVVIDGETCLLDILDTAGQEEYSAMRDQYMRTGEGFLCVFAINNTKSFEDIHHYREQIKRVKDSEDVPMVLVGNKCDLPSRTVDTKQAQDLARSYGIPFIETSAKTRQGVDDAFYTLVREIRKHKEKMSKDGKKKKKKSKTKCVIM
Method in brief: as §1

[5] = system: SW620 cells; experiment: Ras cellular assay, growth of cells with K-Ras G12V mutation (CellTiter-Glo); assay type: cell-based; conditions: Homo sapiens, SW-620; cell growth, Example 9, G12V mutation; read-out: IC50 against SW620 cells
Method in brief: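 SW620 (K-Ras G12V) cells, e.g. 800/well in RPMI-1640 with 10% heat-inactivated FBS on standard or ultra-low attachment plates, were dosed the day after plating with e.g. a 10-point 3-fold series. Viability by CellTiter-Glo luminescence about 6 days later; IC50 from four-parameter fit.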

[6] = molecular target: T4, K-Ras G12V (Homo sapiens, UniProt P01116, G12V); experiment: HTRF resonance energy transfer assay, K-Ras G12V / SOS1 interaction; assay type: biochemical; conditions: HTRF assay of Example 5; read-out: IC50 against K-Ras G12V
T4 construct: made in house; host or cells: E. coli BL21 (DE3)
T4 sequence (P01116 1-188 isoform P01116-2 G12V): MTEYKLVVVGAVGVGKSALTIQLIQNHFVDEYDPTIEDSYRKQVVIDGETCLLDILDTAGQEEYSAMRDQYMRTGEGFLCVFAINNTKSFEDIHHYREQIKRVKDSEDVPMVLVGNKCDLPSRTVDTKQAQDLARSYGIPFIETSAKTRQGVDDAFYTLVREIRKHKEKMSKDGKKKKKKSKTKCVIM
Method in brief: as §1

T1 sequence (P01116 1-188 isoform P01116-2 G12D): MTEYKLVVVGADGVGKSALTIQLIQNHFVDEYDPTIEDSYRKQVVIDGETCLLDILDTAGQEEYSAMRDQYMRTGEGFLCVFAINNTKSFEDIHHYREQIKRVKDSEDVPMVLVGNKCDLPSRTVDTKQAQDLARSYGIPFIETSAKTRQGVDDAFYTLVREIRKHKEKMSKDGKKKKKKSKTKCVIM

| pIC50 [1] | pIC50 [2] | pIC50 [3] | pIC50 [4] | pIC50 [5] | pIC50 [6] | Compound |
| --- | --- | --- | --- | --- | --- | --- |
| > 7.00 | > 5.30 | > 7.00 | > 7.00 | > 5.30 | > 7.00 | CC1Oc2c(Cl)c(-c3ccc(F)c4sc(N)c(C#N)c34)c(F)c3nc(OC[C@@]45CCCN4C[C@H](F)C5)nc(c23)N([C@@H]2CCOC2)C1C (stereo partly drawn) [Compound 741, 2-amino-4-(8-chloro-10-fluoro-2-(((2R,7aS)-2-fluorotetrahydro-1H-pyrrolizin-7a(5H)-yl)methoxy)-5,6-dimethyl-4-((R)-tetrahydrofuran-3-yl)-5,6-dihydro-4H-[1,4]oxazepino[5,6,7-de]quinazolin-9-yl)-7-fluorobenzo[b]thiophene-3-carbonitrile] |
| > 7.00 | > 5.30 | > 7.00 | > 7.00 | > 5.30 | > 7.00 | CC(=O)NC1CC(N2CCOc3c(Cl)c(-c4ccc(F)c5sc(N)c(C#N)c45)c(F)c4nc(OC[C@@]56CCCN5C[C@H](F)C6)nc2c34)C1 (stereo partly drawn) [Compound 623, N-(3-(9-(2-amino-3-cyano-7-fluorobenzo[b]thiophen-4-yl)-8-chloro-10-fluoro-2-(((2R,7aS)-2-fluorotetrahydro-1H-pyrrolizin-7a(5H)-yl)methoxy)-5,6-dihydro-4H-[1,4]oxazepino[5,6,7-de]quinazolin-4-yl)cyclobutyl)acetamide] |
| > 7.00 | > 5.30 | > 7.00 | > 7.00 | > 5.30 | > 7.00 | N#Cc1c(N)sc2c(F)ccc(-c3c(Cl)c4c5c(nc(OC[C@@]67CCCN6C[C@H](F)C7)nc5c3F)N(C3CC(F)(F)C3)CCO4)c12 [Compound 956, 2-amino-4-(8-chloro-4-(3,3-difluorocyclobutyl)-10-fluoro-2-(((2R,7aS)-2-fluorotetrahydro-1H-pyrrolizin-7a(5H)-yl)methoxy)-5,6-dihydro-4H-[1,4]oxazepino[5,6,7-de]quinazolin-9-yl)-7-fluorobenzo[b]thiophene-3-carbonitrile] |
| > 7.00 | > 5.30 | > 7.00 | > 7.00 | > 5.30 | > 7.00 | C[C@H](Oc1nc2c3c(c(Cl)c(-c4ccc(F)c5sc(N)c(C#N)c45)c(F)c3n1)OCCN2C1CCCOC1)[C@@H]1CCCN1C (stereo partly drawn) [Compound 880, 2-amino-4-(8-chloro-10-fluoro-2-((S)-1-((S)-1-methylpyrrolidin-2-yl)ethoxy)-4-(tetrahydro-2H-pyran-3-yl)-5,6-dihydro-4H-[1,4]oxazepino[5,6,7-de]quinazolin-9-yl)-7-fluorobenzo[b]thiophene-3-carbonitrile] |
| > 7.00 | > 5.30 | > 7.00 | > 7.00 | > 5.30 | > 7.00 | N#Cc1c(N)sc2c(F)ccc(-c3c(Cl)c4c5c(nc(OC[C@@]67CCCN6C[C@H](F)C7)nc5c3F)N(CC3CCOCC3)CCO4)c12 [Compound 1067, 2-amino-4-(8-chloro-10-fluoro-2-(((2R,7aS)-2-fluorotetrahydro-1H-pyrrolizin-7a(5H)-yl)methoxy)-4-((tetrahydro-2H-pyran-4-yl)methyl)-5,6-dihydro-4H-[1,4]oxazepino[5,6,7-de]quinazolin-9-yl)-7-fluorobenzo[b]thiophene-3-carbonitrile] |
| > 7.00 | > 5.30 | > 7.00 | > 7.00 | > 5.30 | > 7.00 | COC1CCCC1N1CCOc2c(Cl)c(-c3ccc(F)c4sc(N)c(C#N)c34)c(F)c3nc(OC[C@@]45CCCN4C[C@H](F)C5)nc1c23 (stereo partly drawn) [Compound 657, 2-amino-4-(8-chloro-10-fluoro-2-(((2R,7aS)-2-fluorotetrahydro-1H-pyrrolizin-7a(5H)-yl)methoxy)-4-(2-methoxycyclopentyl)-5,6-dihydro-4H-[1,4]oxazepino[5,6,7-de]quinazolin-9-yl)-7-fluorobenzo[b]thiophene-3-carbonitrile] |
| > 7.00 | > 5.30 | > 7.00 | > 7.00 | > 5.30 | > 7.00 | N#Cc1c(N)sc2c(F)ccc(-c3c(Cl)c4c5c(nc(OC[C@@]67CCCN6C[C@H](F)C7)nc5c3F)N(C3CCCCC3O)CCO4)c12 (stereo partly drawn) [Compound 838, 2-amino-4-(8-chloro-10-fluoro-2-(((2R,7aS)-2-fluorotetrahydro-1H-pyrrolizin-7a(5H)-yl)methoxy)-4-(2-hydroxycyclohexyl)-5,6-dihydro-4H-[1,4]oxazepino[5,6,7-de]quinazolin-9-yl)-7-fluorobenzo[b]thiophene-3-carbonitrile] |
| > 7.00 | > 5.30 | > 7.00 | > 7.00 | > 5.30 | > 7.00 | COCC1COc2c(Cl)c(-c3ccc(F)c4sc(N)c(C#N)c34)c(F)c3nc(OC[C@@]45CCCN4C[C@H](F)C5)nc(c23)N1C (stereo partly drawn) [Compound 887, 2-amino-4-(8-chloro-10-fluoro-2-(((2R,7aS)-2-fluorotetrahydro-1H-pyrrolizin-7a(5H)-yl)methoxy)-5-(methoxymethyl)-4-methyl-5,6-dihydro-4H-[1,4]oxazepino[5,6,7-de]quinazolin-9-yl)-7-fluorobenzo[b]thiophene-3-carbonitrile] |
| > 7.00 | > 5.30 | > 7.00 | > 7.00 | > 5.30 | > 7.00 | N#Cc1c(N)sc2c(F)ccc(-c3c(Cl)c4c5c(nc(OC[C@@]67CCCN6C[C@H](F)C7)nc5c3F)N(C3CCCOCC3)CCO4)c12 (stereo partly drawn) [Compound 638, 2-amino-4-(8-chloro-10-fluoro-2-(((2R,7aS)-2-fluorotetrahydro-1H-pyrrolizin-7a(5H)-yl)methoxy)-4-(oxepan-4-yl)-5,6-dihydro-4H-[1,4]oxazepino[5,6,7-de]quinazolin-9-yl)-7-fluorobenzo[b]thiophene-3-carbonitrile] |
| > 7.00 | > 5.30 | > 7.00 | > 7.00 | > 5.30 | > 7.00 | COC1CC(N2CCOc3c(Cl)c(-c4ccc(F)c5sc(N)c(C#N)c45)c(F)c4nc(OC[C@@]56CCCN5C[C@H](F)C6)nc2c34)C1 (stereo partly drawn) [Compound 660, 2-amino-4-(8-chloro-10-fluoro-2-(((2R,7aS)-2-fluorotetrahydro-1H-pyrrolizin-7a(5H)-yl)methoxy)-4-(3-methoxycyclobutyl)-5,6-dihydro-4H-[1,4]oxazepino[5,6,7-de]quinazolin-9-yl)-7-fluorobenzo[b]thiophene-3-carbonitrile] |
| > 7.00 | > 5.30 | > 7.00 | > 7.00 | > 5.30 | > 7.00 | CC(C1CC1)N1CCOc2c(Cl)c(-c3ccc(F)c4sc(N)c(C#N)c34)c(F)c3nc(OC[C@@]45CCCN4C[C@H](F)C5)nc1c23 (stereo partly drawn) [Compound 1054, 2-amino-4-(8-chloro-4-(1-cyclopropylethyl)-10-fluoro-2-(((2R,7aS)-2-fluorotetrahydro-1H-pyrrolizin-7a(5H)-yl)methoxy)-5,6-dihydro-4H-[1,4]oxazepino[5,6,7-de]quinazolin-9-yl)-7-fluorobenzo[b]thiophene-3-carbonitrile] |
| > 7.00 | > 5.30 | > 7.00 | > 7.00 | > 5.30 | > 7.00 | N#Cc1c(N)sc2c(F)ccc(-c3c(Cl)c4c5c(nc(OC[C@@]67CCCN6C[C@H](F)C7)nc5c3F)N(C3CCN(CC(F)F)C3)CCO4)c12 (stereo partly drawn) [Compound 693, 2-amino-4-(8-chloro-4-(1-(2,2-difluoroethyl)pyrrolidin-3-yl)-10-fluoro-2-(((2R,7aS)-2-fluorotetrahydro-1H-pyrrolizin-7a(5H)-yl)methoxy)-5,6-dihydro-4H-[1,4]oxazepino[5,6,7-de]quinazolin-9-yl)-7-fluorobenzo[b]thiophene-3-carbonitrile] |
| > 7.00 | > 5.30 | > 7.00 | > 7.00 | > 5.30 | > 7.00 | N#Cc1c(N)sc2c(F)ccc(-c3c(Cl)c4c5c(nc(OC[C@@]67CCCN6C[C@H](F)C7)nc5c3F)N(C3CCN(C(=O)C(F)Cl)C3)CCO4)c12 (stereo partly drawn) [Compound 949, 2-amino-4-(8-chloro-4-(1-(2-chloro-2-fluoroacetyl)pyrrolidin-3-yl)-10-fluoro-2-(((2R,7aS)-2-fluorotetrahydro-1H-pyrrolizin-7a(5H)-yl)methoxy)-5,6-dihydro-4H-[1,4]oxazepino[5,6,7-de]quinazolin-9-yl)-7-fluorobenzo[b]thiophene-3-carbonitrile] |
